Test results as given in EP0326331B1, “Substituted quinolines and cinnolines” (Dow AgroSciences LLC, priority 1988, dated 1989).
Read-outs that look alike come from different tables or passages of the source.

Assays:
[1] = tested on: Erysiphe graminis tritici (powdery mildew); assay: Test 1 greenhouse foliar spray screen, powdery mildew on wheat; format: in vivo; conditions: disease control rating, foliar spray on wheat, 400 ppm (+++ at 100 ppm)
[2] = tested on: Pyricularia oryzae (rice blast); assay: whole plant or invertebrate; format: in vivo; conditions: for RICE BLAST: disease control rating, foliar spray on rice, 400 ppm (+++ at 100 ppm); for activity against rice blast: summary statement in the description
[3] = tested on: Puccinia recondita tritici (leaf rust); assay: Test 1 greenhouse foliar spray screen, leaf rust on wheat; format: in vivo; conditions: disease control rating, foliar spray on wheat, 400 ppm (+++ at 100 ppm)
[4] = tested on: Botrytis cinerea (gray mold); assay: Test 1 greenhouse foliar spray screen, gray mold on grape berries; format: in vivo; conditions: disease control rating, spray on grape berries, 400 ppm (+++ at 100 ppm)
[5] = tested on: Pseudoperonospora cubensis (downy mildew); assay: Test 1 greenhouse foliar spray screen, downy mildew on squash; format: in vivo; conditions: for DOWN MDEW: disease control rating, foliar spray on squash, 400 ppm (+++ at 100 ppm)
[6] = tested on: Venturia inaequalis (apple scab); assay: Test 1 greenhouse foliar spray screen, apple scab on apple seedling; format: in vivo; conditions: disease control rating, foliar spray on apple seedling, 400 ppm (+++ at 100 ppm)
[7] = tested on: Septoria tritici (leaf blotch); assay: Test 1 greenhouse foliar spray screen, leaf blotch on wheat; format: in vivo; conditions: disease control rating, foliar spray on wheat, 400 ppm (+++ at 100 ppm)
Phytophthora infestans = format: in vivo; conditions: field test
Alternaria brassica = assay: Field tests against plant pathogens; format: in vivo; conditions: field test, crop rape
From the text: (§1) Selected compounds were field tested against a variety of plant pathogens. […]

Plasmopara viticola = assay: Field tests against plant pathogens; format: in vivo; conditions: field test, crop grape
From the text: as §1

Pyrenophora teres = assay: Field tests against plant pathogens; format: in vivo; conditions: field test, crop barley
From the text: as §1

Rhynchosporium secalis = assay: Field tests against plant pathogens; format: in vivo; conditions: field test, crop barley
From the text: as §1

Sphaerotheca fuliginea = assay: Field tests against plant pathogens; format: in vivo; conditions: field test, crop cucumber
From the text: as §1

[8] = tested on: southern armyworm (Spodopetra eridania Cramer); assay: Mite/insect screen, SAW; format: in vivo; conditions: Spodoptera eridania, percent mortality, SAW, read-out: SAW RESULTS %; for mortality at 200 ppm: SM & MA RATE 200 PPM
Summary of the method: (§2)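 First, each compound was dissolved in an emulsifier-containing acetone/alcohol mixture and diluted with water. Next, leaves were sprayed until runoff and left to dry for an hour. For southern armyworm, two excised uninfested leaves went into a Petri dish with larvae; percent mortality followed standard exposure periods.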

[9] = tested on: Twospotted spider mites (Tetranychus urticae Koch); assay: Mite/insect screen, SM; format: in vivo; conditions: Tetranychus urticae, percent mortality, SAW, read-out: SM RESULTS %; for mortality at 200 ppm: SM & MA RATE 200 PPM
Summary of the method: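 Read-out: percent mortality after standard exposure periods. Test solutions were water dilutions of compound dissolved in acetone/alcohol (50:50) with emulsifier blends; leaves were sprayed to runoff on both surfaces and air-dried for one hour before exposure.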

[10] = tested on: melon aphids (Aphis gossypii Glover); assay: Mite/insect screen, MA; format: in vivo; conditions: Aphis gossypii, percent mortality, SAW, read-out: MA RESULTS %; for mortality at 200 ppm: SM & MA RATE 200 PPM
Summary of the method: as §2

corn rootworm = assay: Mite/insect screen, CRW; format: in vivo; conditions: percent mortality, read-out: CRW RESULTS %; for mortality at 12 ppm: CRW RATE 12.00 PPM
Summary of the method: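 Stock in acetone:alcohol 1:1 + TOXIMUL R 23 g/L + TOXIMUL S 13 g/L; diluted with water to indicated concentrations; mortality (%) after standard exposure.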

CUCURBIT DOWNY MILDEW = assay: Greenhouse combination test with known fungicide, foliar spray; conditions: 1-9 rating scale
Protocol: (§3) The test compounds were formulated for application by dissolving 50 mg of the compound into 1.25 ml of solvent. The solvent was prepared by mixing 50 ml of "Tween 20" with 475 ml of acetone and 475 ml of ethanol. The solvent/compound solution was diluted to 125 ml with deionized water. The resulting formulation contains 400 ppm test chemical. Lower concentrations were obtained by serial dilution with the solvent-surfactant mixture.
(§4) The formulated technical compounds were sprayed on all foliar surfaces of the host plants (or cut berry) to past run-off. Single pots of each host plant were placed on raised, revolving pedestals in a fume hood. Test solutions were sprayed on all foliar surfaces. All treatments were allowed to dry and the plants were inoculated with the appropriate pathogens within 2-4 hours.
(§5) In the tables, the time given under "Time in hours" is the number of hours elapsing between treatment and inoculation. […] In such cases, curative activity was being tested. […] In such cases, residual or protectant activity was tested. […] The results were evaluated on a 1-9 rating scale. These ratings represent the following percent disease control: 1 = 0-19%, 2 = 20-29%, 3 = 30-39%, 4 = 40-59%, 5 = 60-74%, 6 = 75-89%, 7 = 90-96%, 8 = 97-99%, and 9 = 100%.

CUCURBIT POWDERY MILDEW = assay: as above; conditions: 1-9 rating scale, time 4 hours
Protocol: as §3, §4, §5

[11] = tested on: Cercospora beticola (leaf spot); assay: Test 1 greenhouse foliar spray screen, leaf spot on sugar beet; format: in vivo; conditions: disease control rating, foliar spray on sugar beet, 400 ppm (+++ at 100 ppm)
[12] = tested on: Erysiphe graminis tritici; assay: Field tests against plant pathogens; format: in vivo; conditions: field test, crop wheat
From the text: as §1

[13] = tested on: Pseudocercosporella herpotrichoides; assay: Field tests against plant pathogens; format: in vivo; conditions: field test, crop wheat
From the text: as §1

SMILES | POWD MDEW [1] | RICE BLAST [2] | activity against rice blast [2] | LEAF RUST [3] | GRAY MOLD [4] | DOWN MDEW [5] | APPL SCAB [6] | LEAF BLOT [7] | pathogens against which compounds of the invention showed activity (Pyrenophora teres) | pathogens against which compounds of the invention showed activity (Rhynchosporium secalis) | pathogens against which compounds of the invention showed activity (Sphaerotheca fuliginea) | mortality at 200 ppm [8] [%] | mortality at 200 ppm [9] [%] | mortality at 200 ppm [10] [%] | mortality at 12 ppm (corn rootworm) [%] | further results
Fc1cccc2c(NCCc3ccccc3)ccnc12 [Example 5, 8-fluoro-N-(2-phenylethyl)-4-quinolinamine] | ++ (90-100% control at 400 ppm) | ++ (90-100% control at 400 ppm) | particularly excellent activity | +++ (90-100% control at 100 ppm) | - (0-19% control at 400 ppm) | +++ (90-100% control at 100 ppm) | - (0-19% control at 400 ppm) | +++ (90-100% control at 100 ppm) | Pyrenophora teres | Rhynchosporium secalis | Sphaerotheca fuliginea | 0 | 0 | 0 | 0 | activity against downy mildew ([5]; summary statement in the description): particularly excellent activity; pathogens against which compounds of the invention showed activity (Phytophthora infestans; crop potato): Phytophthora infestans; pathogens against which compounds of the invention showed activity (Phytophthora infestans; crop tomato): Phytophthora infestans; pathogens against which compounds of the invention showed activity (Alternaria brassica): Alternaria brassica; pathogens against which compounds of the invention showed activity (Plasmopara viticola): Plasmopara viticola; RESULTS (CUCURBIT DOWNY MILDEW; Ex. 5 alone 6.00 ppm, time 4 hours): 1.0; RESULTS (CUCURBIT DOWNY MILDEW; Ex. 5 alone 12.00 ppm, time 4 hours): 7.0; RESULTS (CUCURBIT DOWNY MILDEW; Ex. 5 alone 24.00 ppm, time 4 hours): 7.5; RESULTS (CUCURBIT DOWNY MILDEW; Ex. 5 alone 48.00 ppm, time 4 hours (treatment before inoculation)): 8.0; RESULTS (CUCURBIT POWDERY MILDEW; Ex. 5 alone 6.00 ppm): 1.0; RESULTS (CUCURBIT POWDERY MILDEW; Ex. 5 alone 12.00 ppm): 1.0; RESULTS (CUCURBIT POWDERY MILDEW; Ex. 5 alone 24.00 ppm): 5.0; RESULTS (CUCURBIT POWDERY MILDEW; Ex. 5 alone 48.00 ppm): 6.0
CC(=O)N(CCc1ccc(Cl)cc1)c1ccnc2c(F)cccc12 [Example 10, N-[2-(4-chlorophenyl)ethyl]-N-(8-fluoro-4-quinolinyl)acetamide] | ++ (90-100% control at 400 ppm) | +++ (90-100% control at 100 ppm) | particularly excellent activity | +++ (90-100% control at 100 ppm) | - (0-19% control at 400 ppm) | ++ (90-100% control at 400 ppm) | - (0-19% control at 400 ppm) | +++ (90-100% control at 100 ppm) | Pyrenophora teres | Rhynchosporium secalis | Sphaerotheca fuliginea | 0 | 0 | 0 | 0 | LEAF SPOT [11]: +++ (90-100% control at 100 ppm); pathogens against which compounds of the invention showed activity [12]: Erysiphe graminis tritici; pathogens against which compounds of the invention showed activity [13]: Pseudocercosporella herpotrichoides; mortality at 400 ppm ([8]; SM & MA RATE 400 PPM): 0%; mortality at 400 ppm ([9]; SM & MA RATE 400 PPM): 0%; mortality at 400 ppm ([10]; SM & MA RATE 400 PPM): 0%; mortality at 24 ppm (corn rootworm; CRW RATE 24.00 PPM): 0%
